The values below are quoted from earlier work in US12661351B2, “Stable liquid compositions of posaconazole” (INVENGENE PRIVATE LIMITED, priority 2020, dated 2026).

Each structure is given as a SMILES string. Where two headings read alike, the source gives them in different places.

Regarding `CC[C@@H]([C@H](C)O)n1ncn(-c2ccc(N3CCN(c4ccc(OC[C@@H]5CO[C@@](Cn6cncn6)(c6ccc(F)cc6F)C5)cc4)CC3)cc2)c1=O` [Posaconazole], the Solubility entry by setting is: (aqueous solutions at pH>4) “less than 1 mcg/ml”; (strong acidic (aqueous) solutions of pH 1 or lower) “about 790 mcg/ml”.
